Reference: article PMC7998250, “Temperate Zone Plant Natural Products—A Novel Resource for Activity against Tropical Parasitic Diseases” (Pharmaceuticals, 2021)
Read-outs that look alike come from different tables or passages of the source.

Columns and labels:
T. brucei = test: Concentration-response EC50, T. brucei; format: cell-based, Trypanosoma brucei brucei; details: for EC50: 48 h; for selectivity index (HepG2 CC50 / T. brucei EC50): preliminary selectivity against HepG2
P. falciparum Dd2Luc = test: Concentration-response EC50, P. falciparum Dd2Luc; format: cell-based, Plasmodium falciparum; details: Plasmodium falciparum, 48 h, read-out: P. falciparum Dd2Luc EC50, intraerythrocytic, 48 h
Description: (§5) EC50 values were determined by serial two-fold dilution of each compound in 96 well plates. Culture conditions and viability assays were as stated for the initial screen, with some exceptions. L. mexicana and L. donovani axenic amastigotes were seeded at 2 × 10^6 cell/s mL, T. brucei and T. evansi were seeded at 2 × 10^5 cells/mL. For cytotoxicity studies, HepG2 cells were seeded at 1 × 10^5 cells/mL, incubated for 48 h and viability was assessed using the Alamar Blue assay [66, 67]. […] Normalised growth and viability data (compared to untreated controls) were plotted against Log10 concentration to estimate EC50 in GraphPad (Prism v6).

[1] = system: T. brucei bloodstream form; test: Initial screen, T. brucei bloodstream form, Alamar Blue; format: cell-based, Trypanosoma brucei brucei; details: for initial hit against T. brucei: growth reduced by ≥50%; for activity at 2 µM / inhibition of growth at 2 µM: Trypanosoma brucei; for inhibition of growth at 2 µM: read-out: initial hit T.b
Summary of the method: (§1)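 Bloodstream-form T. evansi Antat 3/3 and T. brucei Lister 427 were grown in HMI-11 with 10% FBS at 37 °C. Parasites were plated at 1×10^5 cells/mL with compound at 1 μM (T. evansi) or 2 μM (T. brucei) for 48 h, and growth was read by Alamar Blue relative to 1% DMSO controls (n = 6).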

in vitro = details: human
Description: (§2) Initial hits from the parasite panel screen were taken forward in log concentration versus normalised response assays to estimate the half maximal effective concentration (EC50) in hit species as well as the half maximal cytotoxic concentrations (CC50) in the human hepatoma cell line HepG2 as a preliminary test for selectivity. Using CC50/EC50 to define the selectivity index (SI), the selectivity for each compound in a defined species compared to a human cell line was estimated and compared to the EC50 (Figure 3).
(§3) L. mexicana strain MNYC/BZ/62/M379 and L. donovani strain LdBOB (a clonal line from strain MHOM/SD/62/1S-CL2) were maintained in vitro in the procyclic promastigote stage. Parasites were cultivated at 26 °C in Schneider’s medium (Gibco) pH 7.0 containing 10% FBS, 100 U/mL penicillin (Lonza) and 100 μg/mL streptomycin (Lonza) as previously described. Differentiation into axenic amastigotes was performed as described previously. Briefly, axenic amastigotes were cultivated at 32 °C in Schneider’s medium pH 5.5 containing 10% FBS, 100 U/mL penicillin (Lonza) and 100 μg/mL streptomycin (Lonza). Bloodstream form T. brucei brucei strain Lister 427 and T. evansi strain Antat 3/3 [59] were maintained in vitro at 37 °C with 5% (v/v) CO2 in HMI-11 medium supplemented with 10% FBS, as described elsewhere. Intraerythrocytic cultures of P. falciparum Dd2^Luc strain [62] were maintained at 37 °C in a 1% O2:3% CO2:96% N2 atmosphere in RPMI-1640 containing 37.5 mM HEPES, 5 mM NaOH, 10 mM D-glucose, 2 mM L-glutamine, 100 μM hypoxanthine, […] gentamicin sulfate, 5% human serum and 5% albumax-II and 2% haematocrit erythrocytes. When required, cultures were synchronised to ring stages using the sorbitol lysis method. Preliminary cytotoxicity screening was assessed using HepG2 cells. These cells were maintained in vitro at 37 °C with 5% (v/v) CO2 in DMEM (Sigma) pH 7 supplemented with 10% FBS, 100 U/mL penicillin (Lonza) and 100 μg/mL streptomycin (Lonza), as previously described. The human monocyte cell line THP-1 [68] was maintained in vitro by culturing at 37 °C with 5% (v/v) CO2 in complete RPMI medium (Dutch modified RPMI-1640 (Gibco) containing 10% FBS and 2 mM L-glutamine (Gibco)). Differentiation of THP-1 cells into macrophages was performed by seeding 2.5 × 10^5 cells/mL in complete RPMI media, supplemented with 20 ng/mL phorbol 12-myristate 13-acetate (PMA), followed by incubation at 37 °C with 5% (v/v) CO2 for 24 h.
(§4) EC50 values were determined by serial two-fold dilution of each compound in 96 well plates. Culture conditions and viability assays were as stated for the initial screen, with some exceptions. L. mexicana and L. donovani axenic amastigotes were seeded at 2 × 10^6 cell/s mL, T. brucei and T. evansi were seeded at 2 × 10^5 cells/mL. For cytotoxicity studies, HepG2 cells were seeded at 1 × 10^5 cells/mL, incubated for 48 h and viability was assessed using the Alamar Blue assay. Differentiated THP-1 cells were seeded at 5 × 10^4 cells/mL, incubated for 48 h, and viability was assessed by the Alamar Blue assay. Normalised growth and viability data (compared to untreated controls) were plotted against Log10 concentration to estimate EC50 in GraphPad (Prism v6). Bioluminescence relative rate of kill assays in asexual intraerythrocytic P. falciparum Dd2^Luc were carried out as described.

[2] = system: L. mexicana axenic amastigotes; test: Initial screen, L. mexicana axenic amastigotes, Alamar Blue; format: cell-based, Leishmania mexicana; details: Leishmania mexicana
Summary of the method: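 Purified temperate plant natural products from a commercial library (1 mg/mL in DMSO) were tested against Leishmania mexicana axenic amastigotes at a final 2 μM. Parasites were seeded at 1 × 10^6 cells/mL in 96-well plates containing 200 μL culture and incubated 72 h. Growth was measured by Alamar Blue and normalised to DMSO controls (1% v/v), with triplicates over two biological replicates (n = 6).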

[3] = system: P. falciparum Dd2Luc intraerythrocytic trophozoites; test: Initial screen, intraerythrocytic P. falciparum, Malaria SYBR-Green I fluorescence assay; format: cell-based, Plasmodium falciparum; details: for activity at 2 µM / inhibition of growth at 2 µM: Plasmodium falciparum, 48 h; for initial hit against P. falciparum: 2 μM, growth reduced by ≥50%; for inhibition of growth at 2 µM: read-out: initial hit P.f
Summary of the method: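 L. mexicana axenic amastigotes at 1 × 10^6 cells/mL exposed 72 h to compounds at 2 μM, growth read by Alamar Blue; P. falciparum trophozoites at 0.5% parasitaemia, 2% haematocrit, 48 h at 2 μM, SYBR-Green I read-out. Growth normalised to 1% DMSO; hits ≥50% growth reduction.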

P. falciparum 3D7 = test: Concentration-response EC50, P. falciparum 3D7; format: cell-based; details: Plasmodium falciparum
Description: This is not surprising as the rate of kill is a result of the mechanism of cell death and, given their structural similarity, these three bisobolane sesquiterpene glycosides likely share the same target(s), albeit with some differences in affinity. The rate of kill, relatively, falls between that of atovaquone and dihydroartemisinin and is more similar to that of chloroquine.

HepG2 cells = test: in vitro; details: 48 h
Description: as §2, §3, §4

[4] = system: T. evansi bloodstream form; test: Initial screen, T. evansi bloodstream form, Alamar Blue; format: cell-based, Trypanosoma evansi; details: Trypanosoma evansi; for activity at 1 µM: initial screen
Summary of the method: as §1

T. evansi = test: Concentration-response EC50, T. evansi; format: cell-based; details: Trypanosoma evansi, 48 h, read-out: T. evansi EC50
Description: as §5

[5] = Trypanosoma brucei, bloodstream form, read-out: T. brucei EC50
[6] = initial screen, compared to a normalised control with same concentration of DMSO solvent, read-out: mean % growth, T. b. brucei
[7] = read-out: mean % growth, L. mexicana, initial screen, compared to a normalised control with same concentration of DMSO solvent
[8] = read-out: mean % growth, P. falciparum, initial screen, compared to a normalised control with same concentration of DMSO solvent
[9] = 3D7, intraerythrocytic, read-out: P. falciparum 3D7 EC50
[10] = read-out: % growth T. b. brucei, mean % growth compared to a normalised control with same concentration of DMSO solvent, initial screen
[11] = read-out: % growth L. mexicana, mean % growth compared to a normalised control with same concentration of DMSO solvent, initial screen
[12] = read-out: %growth P. falciparum, mean % growth compared to a normalised control with same concentration of DMSO solvent, initial screen
[13] = 3D7, read-out: P. falciparum 3D7 EC50
[14] = compared to a normalised control with same concentration of DMSO solvent, read-out: mean % growth, T. evansi
[15] = Trypanosoma brucei, read-out: T. brucei EC50, bloodstream form, 48 h
[16] = mean % growth compared to a normalised control with same concentration of DMSO solvent, initial screen

| SMILES | EC50 (T. brucei; [5]) [nM] | EC50 (P. falciparum Dd2Luc) [nM] | initial hit against T. brucei ([1]; 2 μM) | activity at 2 µM [1, 6] [%] | inhibition of growth at 2 µM ([1]; 2 μM, x = initial hit) [%] | CC50 at 48 h (in vitro; pH 7, HepG2 CC50) [nM] | activity at 2 µM [2, 7] [%] | activity at 2 µM [3, 8] [%] | selectivity index (HepG2 CC50 / T. brucei EC50) (T. brucei) | activity at 2 µM [2, 11] [%] | initial hit against P. falciparum [3] | activity at 2 µM [3, 12] [%] | inhibition of growth at 2 µM [3] [%] | EC50 (P. falciparum 3D7; [13]) [nM] | further results |
| --- | --- | --- | --- | --- | --- | --- | --- | --- | --- | --- | --- | --- | --- | --- | --- |
| CC(=O)OC1C(COC(=O)/C=C/c2ccc(O)cc2)OC(Oc2c(-c3ccc(O)cc3)oc3cc(O)cc(O)c3c2=O)C(OC(=O)/C=C/c2ccc(O)cc2)C1OC(C)=O (stereo not drawn) [Compound 701082] | 1100 | 1200 | initial hits | 5 | > 50 | 4600 | 67.8 | 77 | – | – | – | – | – | – | EC50 (P. falciparum 3D7; [9]): 1600 nM |
| CC1(C)OC2CC(=O)C=CC2(c2cc(=O)c3c(O)cc(O)cc3o2)O1 (stereo not drawn) [Compound 700585] | 430 | – | initial hits | 40.8 | > 50 | < 10000 | 78 | 95.2 | > 10 | – | – | – | – | – | CC50 (HepG2 cells; human, pH 7): 5300 nM |
| COc1cc(/C=C/C(=O)OC2CC3(C[C@H]4C=C(C(=O)OC5OC(CO)C(O)C(OC(C)=O)C5OC5OC(C)C(O)C(OC(C)=O)C5O)CC[C@H]4C34CO4)OC[C@@H]2C)ccc1O (stereo partly drawn) [Compound 700104] | – | 750 | – | – | – | – | – | – | – | 146 | initial hits | 31.6 | > 50 | 350 | activity at 2 µM [1, 10]: 69.7% |
| C=C1C(OC(=O)/C=C/c2ccccc2)C(CC(C)=O)C(O)C2(C)CCC3=C(C)C(OC(C)=O)CC(CC12)C3(C)C (stereo not drawn) [Compound 700535] | – | 2300 | – | 99.4 | – | – | 68.2 | 31 | – | – | initial hits | – | > 50 | – | activity at 1 µM [4, 14]: 78.7%; EC50 (P. falciparum 3D7; [9]): 3300 nM |
| CC(=O)OC1C(O)C(C)OC(OC2C(OC(=O)C3CC[C@@H]4[C@H](C3)OC3(CC(OC(=O)/C=C/c5ccccc5)[C@@H](C)CO3)C43CO3)OC(CO)C(O)C2OC(C)=O)C1O (stereo partly drawn) [Compound 700048] | – | 150 | initial hits | – | – | – | – | – | > 10 | 89 | initial hits | – | > 50 | 360 | EC50 (T. brucei; [15]): 160 nM; inhibition of growth at 2 µM [1]: > 50%; % growth T. b. brucei [1, 16]: 5.8%; %growth P. falciparum [3, 16]: 20.3% |
| CC(=O)OC1C(C)OC(OC2C(OC(=O)C3CC[C@@H]4[C@H](C3)OC3(CC(OC(=O)/C=C/c5ccccc5)[C@@H](C)CO3)C4(O)CO)OC(C)C(O)C2OC(C)=O)C(O)C1O (stereo partly drawn) [Compound 700035] | 350 | – | initial hits | – | > 50 | – | – | – | – | – | – | 90.1 | – | – | EC50 (T. brucei; bloodstream form, read-out: T. brucei EC50): 360 nM; activity at 1 µM ([4]; mean % growth compared to a normalised control with same concentration of DMSO solvent, read-out: % growth T. evansi): 105%; CC50 at 48 h (in vitro; pH 7, HepG2 CC50, 48 h): 15200 nM; CC50 (HepG2 cells; read-out: HepG2 CC50): 15000 nM |
| CC(=O)OC1C(O)C(C)OC(OC2C(OC(=O)C3CC[C@@H]4[C@H](C3)OC3(CC(OC(=O)/C=C/c5ccccc5)[C@@H](C)CO3)C43CO3)OC(CO)C(O)C2O)C1O (stereo partly drawn) [Compound 700046] | – | 56 | initial hits | – | – | – | – | – | > 10 | 83.4 | initial hits | 9.8 | > 50 | 34 | EC50 (T. brucei; [15]): 180 nM; activity at 1 µM ([4]; read-out: % growth T. evansi, mean % growth compared to a normalised control with same concentration of DMSO solvent): 2.9%; inhibition of growth at 1 µM ([4]; read-out: initial hit T.e): > 50%; EC50 (T. evansi): 118 nM; activity at 2 µM [1, 10]: 5.6%; inhibition of growth at 2 µM [1]: > 50% |
| COC(=O)C1=COC(O)C2C1CC(OC(=O)/C=C/c1ccc(O)cc1)C2C (stereo not drawn) [Compound 701145] | 520 | – | initial hits | 3.4 | > 50 | 27800 | 48.9 | 96 | – | – | – | – | – | – | activity at 1 µM [4, 14]: 118%; CC50 (HepG2 cells; human, pH 7): 28000 nM |
